Earlier results, collected in US20080292666A1, “Preparation for Preventing or Treating Calcium Deficiency Conditions In Mammals” (priority 2005, published 2008).

Columns and labels:
[1] = for effect of oral drenches on blood Ca-concentrations: aqueous solutions or slurries, cows
[2] = tested on: parturient paresis in dairy cows; details: 120 g calcium as calcium propionate cylinders vs 216 g as oily calcium chloride solution
[3] = 75 g of calcium as paste, oral

Structure (SMILES) | rise of plasma Ca-concentrations after oral CaCl2 compared with i.v. ([1]; 50 g of Ca as CaCl2) | effect of oral drenches on blood Ca-concentrations [1] | total amount administered in 24 h not to be exceeded to avoid severe metabolic acidosis ([1]; oral, 24 h (120 g of Ca)) | effectiveness in the prevention of milk fever [2] | persistence of the increase in plasma calcium [3] | rapidity of plasma calcium increase [3]
[Ca+2].[Cl-].[Cl-] [calcium chloride] | raised plasma Ca-concentrations to the same extent as 4° g. of Ca as CaCl2 given i.v. | increased blood Ca-concentrations more quickly than did Ca-propionate | ≤ 288 g |  |  | 
CCC(=O)[O-].CCC(=O)[O-].[Ca+2] [calcium propionate] |  | effects lasted longer |  | as effective in the prevention of milk fever as was treatment with calcium chloride | sustained for a longer period | did not increase plasma calcium as rapidly as 75° g. calcium as CaCl2
